Measurements as given in patent EP3679952A1, “NANOEMULSIONS ENCAPSULATING PRODRUGS” (Université de Strasbourg, priority 2019, dated 2020).

Key:
[1] = test system: 4T1; experiment: MTS cytotoxicity assay in cell culture; format: cell-based, mouse; conditions: 4T1 cells, 48h incubation, prodrugs loaded in nanoemulsion, free drugs without nanoemulsion
Description: (§1) The MTS assay is based on the reduction of the MTS tetrazolium compound by viable mammalian cells (here, by tumor cells) to generate a colored formazan dye that is soluble in cell culture media. The formazan dye is quantified by measuring the absorbance at 490-500 nm. […] After 24h, the medium was removed and replaced by drug-containing (LipoHD-DOX nanoemulsion or DOX alone) medium. After 48h, the medium was removed and replaced with MTS-containing medium (0,5 mg/ml). After 4h of incubation, the medium was removed, replaced with 100µl of DMSO (agitation, 20 min) and the absorbance was read at 570 nm.

[2] = test system: Jimt1; experiment: MTS cytotoxicity assay in cell culture; format: cell-based, Human; conditions: Jimt1 cells, 48h incubation, prodrugs loaded in nanoemulsion, free drugs without nanoemulsion
Description: as §1

[3] = test system: MDA-MB-231; experiment: MTS cytotoxicity assay in cell culture; format: cell-based, Human; conditions: MDA-MB-231 cells, 48h incubation, prodrugs loaded in nanoemulsion, free drugs without nanoemulsion
Description: as §1

[4] = DOX encapsulation in nanoemulsions with or without Lipo-HD, absorption spectra after dialysis (Example 1); format: physicochemical; conditions: for loading: after dialysis; for retention inside nanoemulsions after dialysis: dialysis in 0.1M NaHCO3 for 12h
Description: The compound Lipo-HD was dissolved firstly into the oil Labrafac® at 10 wt%. Then 65 mg of surfactant Solutol was added to 35 mg of above solution. The mixture was homogenized under magnetic stirring at 90°C for 10 min up to complete homogenisation. Finally, nanoemulsions were generated with the addition of ultrapure (Milli-Q) water (230 mg). The size of nanoemulsions could be monitored by the variation of the ratio between oil (labrafac) and surfactant (solutol). For fluorescence studies, 0.5 wt% of a donor dye […] is added respectively to Labrafac® containing or not 10 wt% of Lipo-HD. Then the nanoemulsions were prepared as described above. […] was used for monitoring the encapsulation, release and stability of the nanoemulsion by looking on the intensity variation between […] and DOX. […] To those solutions, […] of DOX-HCl (30 mM) was added. The mixtures were vortexes for 12 h at 37 °C. The Scheme of synthesis is illustrated in figure 1. The resulting solutions were dialyzed in 500 mL of 0.1M NaHCO3 for 12h. Absorption spectra were recorded on a Cary® spectrophotometer (Varian) according to conventional measurement method.

[5] = Size distribution of nanoemulsions by dynamic light scattering; format: physicochemical; conditions: nanoemulsion with the compound at 5 wt% in Labrafac, Cremophore, reacted with doxorubicin (Example 2)
Description: The compound Lipo-HD was dissolved firstly into the oil Labrafac® at 10 wt%. Then 65 mg of surfactant Solutol was added to 35 mg of above solution. The mixture was homogenized under magnetic stirring at 90°C for 10 min up to complete homogenisation. Finally, nanoemulsions were generated with the addition of ultrapure (Milli-Q) water (230 mg). The size of nanoemulsions could be monitored by the variation of the ratio between oil (labrafac) and surfactant (solutol).
Size distributions were determined by dynamic light scattering using Zetasizer Nano ZSP (Malvern Instruments S.A).
(§2) Corresponding compounds of formula II'a were respectively dissolved first into the oil Labrafac® at 5 wt%. Then 45 mg of surfactant Cremophore ® was added to 55 mg of above solution. The mixture was homogenized under magnetic stirring at 40°C for 10 min up to complete homogenisation. Finally, nanoemulsions were generated with the addition of phosphate buffered saline (230 mg).

[6] = Doxorubicin loading of nanoemulsions containing compounds of formula II'a (Example 2); format: physicochemical; conditions: nanoemulsion with the compound at 5 wt% in Labrafac, Cremophore, reacted with doxorubicin at pH 4, 37°C, 24h, then dialysed 24h and centrifuged
Description: as §2
300 µl of the obtained nanoemulsion encapsulating the compound of formula II'a were diluted into 300 µl of 20 mM acetate buffer (pH=4), and then 50 µl of 30 mM solution of doxorubicin in DMSO was added. The mixture was reacted under shaking at 37°C during 24h.
After the reaction, the sample was dialysed for 24h at NaHCO3 buffer (0.1 M) at pH8 and then centrifugation at 6000 rpm for 1 minute was carried out.

[7] = Storage stability of nanoemulsions (absorption spectra, precipitation) after 4 days; format: physicochemical; conditions: for change of absorption spectra on storage: nanoemulsions of the compound reacted with DOX, after 4 days storage at 4°C
Description: • Figure 1: Scheme of synthesis of DOX/Lipo-HD conjugate in situ inside lipid nanoemulsions. • Figure 2A: Absorption spectra of 100 timed diluted nanoemulsions containing reference dye F888 and with Lipo-HD alone (F888-Lipo-HD), of 100 timed diluted nanoemulsions with Lipo-HD after incubation with DOX (F888-Lipo-HD-DOX), and of nanoemulsions encapsulating F888-Lipo-HD-DOX and further dialysis (F888-Lipo-HD-DOX after dialysis). Reference dye F888 was encapsulated at 0.5 wt% of with respect to Labrafac oil. Lipo-HD was encapsulated at 10 wt%. • Figure 2B: Absorption spectra of 100 timed diluted nanoemulsions containing F888 but without Lipo-HD (F888), of 100 times diluted nanoemulsions containing F888 after incubation with DOX (F888-DOX), and of nanoemulsion encapsulating F888-DOX further dialysis (F888-DOX after dialysis). […] Reference dye F888 was encapsulated at 0.5 wt%. • Figure 4A: Fluorescence spectra of nanoemulsions encapsulating 0.5 wt% of donor dye F888 with 10 wt% of Lipo-HD (F888-Lipo-HD) or without Lipo-HD (F888). • Figure 4B: Fluorescence spectra of nanoemulsions with Lipo-HD incubated with DOX and then dialyzed (F888-Lipo-HD-DOX), of nanoemulsions without Lipo-HD incubated with DOX and then dialyzed (F888-DOX), and of nanoemulsions containing F888 alone (F888). […] All fluorescence spectra were corrected from the blank. • Figures 5A, 5B: Fluorescence spectra of F888-Lipo-HD-DOX nanoemulsions (5000-fold dilution) in the presence of blank nanoemulsions (50-fold dilution) at pH 7.4 (Fig. 5A) and 4.0 (Fig. 5B). […] All fluorescence spectra were corrected from the blank. • Figures 5C: Fluorescence intensity ratio donor/acceptor as a function of incubation time for pH 7.4 and 4.0 (Fig. 5C). • Figure 6A, 6B: Absorption spectra of four nanoemulsions containing respectively a compound of formula I'a, where R1 and R2 are butyl (C4)-alkyl chains, or octyl (C8)-alkyl chains, or octadecyl (C18)-alkyl chains, or R1 is a single C18 alkyl-chain, while R2 = H (C18 mono chain). […]

| PDI [5] | Size (nm) [5] [nm] | Encapsulation loading (%) [6] [%] | loading efficiency (%) [6] [%] | change of absorption spectra on storage [7] | loading ([4]; DOX loading with respect to labrafac oil, nanoemulsion with 10 wt% Lipo-HD, calculated with extinction coefficient of DOX 12 200 M^-1cm^-1) [wt%] | precipitation of nanoemulsion ([7]; nanoemulsion of the compound reacted with DOX, 4 days after preparation) | SMILES | Cytotoxicity [1] | Cytotoxicity [2] | Cytotoxicity [3] | loading ([4]; DOX loading of nanoemulsion without Lipo-HD) [%] | retention inside nanoemulsions after dialysis [4] | solubility in oil ([4]; conjugate formed in situ in nanoemulsion, compared with DOX alone) |
| --- | --- | --- | --- | --- | --- | --- | --- | --- | --- | --- | --- | --- | --- |
| – | – | – | – | – | – | – | COc1cccc2c1C(=O)c1c(O)c3c(c(O)c1C2=O)C[C@@](O)(C(=O)CO)C[C@@H]3O[C@H]1C[C@H](N)[C@H](O)[C@H](C)O1 [DOX, doxorubicin, reference compound] | dose-dependent cytotoxicity | dose-dependent cytotoxicity | dose-dependent cytotoxicity | < 0.06 | leaked out | – |
| 0.118 | 99 | 1.58 | 55 | minimal changes | 1.6 | – | CCCCCCCCCCCCCCCCCCN(CCCCCCCCCCCCCCCCCC)C(=O)CCC(=O)NN [Lipo-HD, 3-(hydrazinecarbonyl)-N,N-dioctadecylpropanamide] | – | – | – | – | – | – |
| 0.132 | 104 | 0.68 | 21 | strong loss of absorbance | – | signs of precipitation | CCCCCCCCCCCCCCCCCCNC(=O)CCC(=O)NN [Lipo-HD-C18] | – | – | – | – | – | – |
| – | – | – | – | – | – | – | CCCCCCCCCCCCCCCCCCN(CCCCCCCCCCCCCCCCCC)C(=O)CCC(=O)NN=C(CO)C1(O)Cc2c(O)c3c(c(O)c2C(OC2CC(N)C(O)C(C)O2)C1)C(=O)c1c(OC)cccc1C3=O (stereo not shown) [Lipo-HD-DOX] | similarly | higher toxicity | higher toxicity | – | remain inside nanoemulsions after dialysis | much better soluble in oil than DOX alone |
| – | – | – | – | – | – | – | CCCCCCCCCCCCCCCCCCN(CCCCCCCCCCCCCCCCCC)C(=O)CCC(=O)Nc1ccn([C@@H]2O[C@H](CO)[C@@H](O)C2(F)F)c(=O)n1 [Lipo-N-Gem] | dose-dependent | slightly more efficient | slightly more efficient | – | – | – |
| – | – | – | – | – | – | – | CC(=O)O[C@H]1C(=O)[C@@]2(C)[C@H]([C@H](OC(=O)c3ccccc3)[C@]3(O)C[C@H](OC(=O)[C@H](O)[C@@H](NC(=O)c4ccccc4)c4ccccc4)C(C)=C1C3(C)C)[C@]1(OC(C)=O)CO[C@@H]1C[C@@H]2O [paclitacel, paclitaxel, reference compound] | slightly higher | slightly higher | slightly higher | – | – | – |
